Assay results taken from patent publication US20240261317A1, “METHODS OF TREATING MEDICAL CONDITIONS AND INHIBITING LINE1 REVERSE TRANSCRIPTASEUSING A SUBSTITUTED 4-FLUORO-2,5-DIHYDROFURANYL PHOSPHONIC ACID OR RELATED COMPOUND” (ROME Therapeutics, Inc., priority 2021, published 2024).

Legend:
[1] = molecular target: T1, LINE1 reverse transcriptase (Homo sapiens, UniProt O00370); assay: Stable artificial-intron Cis LINE1 reporter assay in HeLa Tet-On 3G cells; type: cell-based; design: expressed in transfected cells; host or cells: HeLa Tet-On 3G (Takara, cat no 631183)
Excerpt: A stable HeLa Tet-On 3G (Takara, cat no 631183) cell line expressing a bi-directional inducible LINE1 construct was generated as described in Xie, Y. et al. “Cell division promotes efficient retrotransposition in a stable L1 reporter cell line,” Mobile DNA (2013) 4:10. Single cell clones were screened for high Luciferase expression and the highest expression Firefly expressing clone was chosen for compound testing.
Test compounds were serially diluted in DMSO and spotted in 96-well plates. Subsequently the HeLa L1 artificial-intron reporter cells were plated into the compound-containing wells (8,000 cells/well), and the cells were induced for reporter expression with doxycycline (Sigma cat no D9891) at a final concentration of 500 ng/mL. Luminescence was measured 72 h after plating using the Dual-Glo Luciferase Assay System (Promega cat no E2940) following the manufacturer's instructions. The Firefly Luciferase activity was used to report LINE1 activity.

[2] = molecular target: T1, LINE1 reverse transcriptase; assay: Transient artificial-intron Cis LINE1 reporter assay (FLuc/RLuc ratio); type: cell-based; design: expressed in transfected cells; conditions: HEK 293 cells
Method: (§1) Intron-disrupted Firefly luciferase (FLuc) expression cassettes were generated as described by Xie, Y. et al. “Characterization of L1 retrotransposition with high-throughput dual-luciferase assays,” Nucleic Acid Res. (2011) Vol. 39, No. 3, e16. In addition, the plasmid contained an intact Renilla luciferase (RLuc) expression cassette on the vector backbone, in order to normalize transfection efficiency and measure potential cell toxicity.
(§2) HEK 293 cells were seeded in 96-well plates at 1,000 cells/well in 55 μL and grown for 24 hours. Cells were transfected with FuGeneHD (Promega) following the manufacturer's protocol. Each well received 0.133 ng plasmid, 0.4 μL FuGeneHD reagent, and 4.5 μL GlutaMAX-I-supplemented Opti-MEM I reduced-serum medium (Invitrogen). Cells were simultaneously treated with test compound serially diluted starting at 100 μM in a 3-fold dilution dose response.
(§3) Luminescence was measured using the Dual-Glo Luciferase Assay System (Promega) following the manufacturer's instructions. The ratio between FLuc and RLuc gene expression was used to report LINE1 activity.

[3] = molecular target: T2, recombinant MBP-tagged LINE1 protein (238-1061) (Homo sapiens, UniProt O00370); assay: Homogeneous time-resolved fluorescence (HTRF) LINE1 RT assay; type: biochemical; conditions: tested as tri(ammonium) salt, read-out: IC50 for inhibition of LINE1 reverse transcriptase
T2 construct: recombinant MBP-tagged LINE1 protein (238-1061); made in house
Method: The LINE1 reverse transcriptase homogeneous time-resolved fluorescence (HTRF) assay was performed with recombinant MBP-tagged LINE1 protein (238-1061) (generated and purified according to procedures in Dai L. et al. BMC Biochemistry 2011; 12:18) in a 384-well format. Test compound was serially diluted in DMSO and further diluted in the assay buffer (50 mM Tris-HCl, 50 mM KCl, 10 mM MgCl2, 10 mM DTT, pH 8.1) to achieve a final DMSO concentration of 1%. The serially diluted compound was mixed with 64 ng/well of LINE1 enzyme, 5 nM of pre-annealed template/biotin-primer pair (synthesized at Generay Biotechnology), 10 nM of Fluorescein-12-dATP fluorescent probe (Perkin Elmer), and 1 μM dGTP/dCTP/dTTP (Thermo Fisher Scientific) in the assay buffer. The template/biotin-primer sequences were as follows:
(§4) After incubating at 25° C. for 60 minutes, the detection reagent (20 mM EDTA with streptavidin-terbium cryptate, Cisbio Bioassay) in the PPI buffer (Cisbio Bioassay) was added, and the mixture was incubated at 25° C. for 30 minutes. At the end of the incubation, fluorescence was read at ex/em=337/485 nm and ex/em=337/520 nm on an Envision 2104 plate reader (Perkin Elmer). The fluorescence ratio at 520/485 nm was used for the calculation. […] The IC50 was calculated by fitting the compound dose inhibition curve with a 4-parameter non-linear regression equation.

[4] = molecular target: T3, HERV-K reverse transcriptase (2-596)-8His protein (Homo sapiens, UniProt V9H0F6); assay: Homogeneous time-resolved fluorescence (HTRF) HERV-K RT assay; type: biochemical; conditions: tested as tri(ammonium) salt, read-out: IC50 for inhibition of HERV-K reverse transcriptase
T3 construct: fused on or other part: C-terminal 8His tag
T3 sequence (V9H0F6 entry or part of it): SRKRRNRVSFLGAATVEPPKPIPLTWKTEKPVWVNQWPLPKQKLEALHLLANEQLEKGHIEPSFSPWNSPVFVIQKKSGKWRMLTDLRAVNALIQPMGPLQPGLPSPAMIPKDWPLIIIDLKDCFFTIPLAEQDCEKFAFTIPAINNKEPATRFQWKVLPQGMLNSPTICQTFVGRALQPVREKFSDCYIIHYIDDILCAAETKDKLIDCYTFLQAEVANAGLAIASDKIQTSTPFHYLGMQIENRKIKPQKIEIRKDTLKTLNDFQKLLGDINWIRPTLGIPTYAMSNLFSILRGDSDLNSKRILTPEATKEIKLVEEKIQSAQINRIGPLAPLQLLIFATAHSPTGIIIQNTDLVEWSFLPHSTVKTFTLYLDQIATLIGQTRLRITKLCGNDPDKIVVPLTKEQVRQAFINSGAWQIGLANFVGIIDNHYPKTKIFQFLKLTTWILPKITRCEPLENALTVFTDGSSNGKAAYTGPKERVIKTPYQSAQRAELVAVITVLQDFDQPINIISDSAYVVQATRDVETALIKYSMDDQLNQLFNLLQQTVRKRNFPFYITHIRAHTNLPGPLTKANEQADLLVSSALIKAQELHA
Method: The HERV-K reverse transcriptase homogeneous time-resolved fluorescence (HTRF) assay was performed in a 384-well format with HERV-K reverse transcriptase (2-596)-8His protein. Baculoviruses were created using Bac-to-Bac technology (Invitrogen). pFastBac donor plasmids containing HERV-K reverse transcriptase sequence (NCBI GenBank number AAC63291.1, J. Virology (1999) Vol. 73, No. 3, pp. 2365-2375) were transformed into DH10 Bac cells following the manufacturer's instructions. Recombinant bacmids were then isolated clonally and transfected into SF9 cells with lipofectin. HERV-K reverse transcriptase was expressed in the SF9 insect cells and then purified using immobilized metal affinity chromatography (IMAC) followed by size-exclusion chromatography (SEC). […]
as §4, with “30” for “60”, “20” for “(20”, “cryptate (Cisbio” for “cryptate, Cisbio”, “60” for “30”

[5] = tested on: HEK 293 cells; assay: Transient LINE1 reporter assay, Renilla luciferase (RLuc) control readout for potential cell toxicity; type: cell-based; conditions: even at the highest dose tested (100 μM), FIG. 1
Method: as §1, §2, §3

[6] = HeLa L1 artificial-intron reporter cells, doxycycline induced, 72 h, Firefly luciferase, read-out: IC50
[7] = transient LINE1 reporter, Table 5 of Example 1, read-out: IC50

SMILES: Nc1nc(F)nc2c1ncn2[C@@H]1O[C@H](OCP(=O)(O)O)C=C1F [Compound V-1, sodium ((((2R,5R)-5-(6-amino-2-fluoro-9H-purin-9-yl)-4-fluoro-2,5-dihydrofuran-2-yl)oxy)methyl)phosphonate]
- IC50 [1, 6]: > 500 nM

SMILES: CCOC(=O)[C@H](C)NP(=O)(CO[C@@H]1C=C(F)[C@H](n2cnc3c(N)nc(F)nc32)O1)Oc1ccccc1 (stereo partly drawn) [Compound V-2, ethyl (2S)-2-[({[(2R,5R)-5-(6-amino-2-fluoropurin-9-yl)-4-fluoro-2,5-dihydrofuran-2-yl]oxy}methyl(phenoxy)phosphoryl)amino]propanoate]
- IC50 [1]: > 500 nM

SMILES: CCOC(=O)[C@H](C)N[P@](=O)(CO[C@@H]1C=C(F)[C@H](n2cnc3c(N)ncnc32)O1)Oc1ccccc1 [II-1, ethyl ((S)-((((2R,5R)-5-(6-amino-9H-purin-9-yl)-4-fluoro-2,5-dihydrofuran-2-yl)oxy)methyl)(phenoxy)phosphoryl)-L-alaninate]
- IC50 [1, 6]: < 50 nM
- IC50 [2, 7]: < 50 nM

SMILES: CCOC(=O)[C@H](C)N[P@@](=O)(CO[C@@H]1C=C(F)[C@H](n2cnc3c(N)ncnc32)O1)Oc1ccccc1 [II-2, ethyl ((R)-((((2R,5R)-5-(6-amino-9H-purin-9-yl)-4-fluoro-2,5-dihydrofuran-2-yl)oxy)methyl)(phenoxy)phosphoryl)-L-alaninate]
- IC50 [1, 6]: < 50 nM
- IC50 [2, 7]: < 50 nM

SMILES: Nc1ncnc2c1ncn2[C@@H]1O[C@H](OCP(=O)(O)O)C=C1F [III-1, Sodium ((((2R,5R)-5-(6-amino-9H-purin-9-yl)-4-fluoro-2,5-dihydrofuran-2-yl)oxy)methyl)phosphonate]
- IC50 [1, 6]: > 500 nM

SMILES: Nc1ncnc2c1ncn2[C@@H]1O[C@H](OCP(=O)(O)OP(=O)(O)OP(=O)(O)O)C=C1F [IV-1]
- IC50 [3]: 100 nM
- IC50 [4]: 120 nM

SMILES: Nc1ncnc2c1ncn2[C@@H]1O[C@H](OCP(=O)(O)O)C=C1F [Test Compound]
- IC50 ([2]; transient transfection, FIG. 1, read-out: IC50 for inhibition of FLuc (FF/RR)): 1000 nM
- impact on RLuc expression (Renilla) [5]: without any material impact
